3 molecules from publication PMC8011197, “A polo-like kinase modulates cytokinesis and flagella biogenesis in Giardia lamblia” (Parasites & Vectors, 2021) can be followed below.

Usually IC50 stands for the concentration that gives 50% inhibition.

Common to all, as to type: cell-based
The test system of assay [1] is Giardia lamblia trophozoites. The experiment in a line: Growth inhibition of Giardia trophozoites, hemocytometer count after 24 h. The note with it: Giardia duodenalis, GW 5–15 μM, 2 × 10^4 cells/ml, read-out: IC50, inhibition of growth of G. lamblia. As for the experimental part: After treatment for 24 h, the number of parasites per milliliter was determined using a hemocytometer. Giardia trophozoites treated with 0.3% dimethyl sulfoxide (DMSO) were used as controls.

Assay [2] relates to Giardia lamblia trophozoites. The assay can be described thus: Nuclear phenotype (number, position, condensation of nuclei) of Giemsa-stained cells. The note with it: for Percentage of cells, 1N / Percentage of cells, 2N, abnormal / Percentage of cells, 2N, normal / Percentage of cells, 3N / Percentage of cells, 4N / Percentage of cells, >4N: 5 µM GW. As for the experimental part: For the microscopic observation of cells, the cells were attached to slides, air-dried and fixed with 100% methanol for 10 min, following which they were stained with 10% Giemsa solution for 40 min and washed with distilled water. After mounting with dibutyl phthalate xylene (Sigma-Aldrich, St. Louis, MO, USA), the slides were observed under an Axiovert 200 microscope (Carl Zeiss AG, Oberkochen, Germany). For each condition, at least 300 cells were examined to determine the number and position of the nuclei. Among cells with two nuclei in normal positions, the number of cells showing nuclei condensation was also recorded. Data are presented as the mean ± standard deviation (SD) of three independent experiments. […]

For assay [3], the system named is Giardia lamblia trophozoites. The assay can be described thus: DNA content / cell cycle phase by flow cytometry (PI). As for the experimental part:
Both the GW-treated and control G. lamblia cells were analyzed for their DNA content using flow cytometry. Briefly, the harvested cells were resuspended in 50 μl TYI-S-33 culture medium and treated with 150 μl of a cell fixative (1% Triton X-100, 40 mM citric acid, 20 mM dibasic sodium phosphate, 200 mM sucrose; pH 3.0) at room temperature for 5 min. The samples were diluted with 350 μl of diluent buffer [125 mM MgCl2 in phosphate-buffered saline (PBS: 137 mM NaCl, 2.7 mM KCl, 10.1 mM Na2HPO4 and 2 mM KH2PO4, pH 7.4)] and then stored at 4 °C until use. Fixed cells were treated with 2.5 μg RNase A (Sigma-Aldrich) and 10 μg/ml propidium iodide (PI; Sigma-Aldrich) for 30 min at 37 °C. […] Along representative histograms, averages of three independent experiments were presented in bar graphs.
Expression of GlPLK was knocked down using a morpholino, as described previously. A specific morpholino for GlPLK was designed by Gene Tools (Philomath, OR, USA) (see Table 1 for sequences). Nonspecific oligomers were used as a control morpholino (Table 1). Cells (5 × 10^6 in 0.3 ml medium) were treated with the lyophilized morpholino at a final concentration of 100 nM. After electroporation, the cells were grown for various lengths of time, ranging from 12 to 48 h, and analyzed for GlPLK inhibition by western blotting using anti-HA and anti-GlPLK antibodies. The cells at 18 h post-transfection were analyzed for their nuclear phenotypes, including the number and position of nuclei and condensation and flagella length, as described above. In addition, cells transfected with control or anti-glplk morpholino were harvested at 6 or 18 h, and then evaluated with respect to their DNA content by flow cytometry followed by analysis using FlowJo software (FlowJo Llc). […]
These cells were then analyzed by flow cytometry to determine the ploidy of their DNA. Intracellular levels of GlPLK protein in the DMSO-treated, nocodazole-treated and nocodazole/aphidicolin-treated Giardia cells were determined by western blotting. The intracellular levels of glplk transcripts were also measured in these cells.
In general terms: Flow cytometry measures light scatter and fluorescence of single cells or particles in a stream.

The test system of assay [4] is Giardia lamblia trophozoites. The experiment in a line: Flagella length of Giemsa-stained cells (DIC images, Fiji/ImageJ). The note with it: 5 µM GW. An excerpt:
To measure flagella length, we observed Giemsa-stained cells under an Axiovert 200 microscope and analyzed their differential interference contrast (DIC) images using Fiji, an open-source platform for biological-image analysis. Each of four types of flagella were divided into cytoplasmic and membrane-bound categories and then measured using the line Freehand Tracing 0mode in ImageJ software (http://imagej.nih.gov/ij/). […] Data are presented as the mean ± SD of three independent experiments.
Expression of GlPLK was knocked down using a morpholino, as described previously. A specific morpholino for GlPLK was designed by Gene Tools (Philomath, OR, USA) (see Table 1 for sequences). Nonspecific oligomers were used as a control morpholino (Table 1). Cells (5 × 10^6 in 0.3 ml medium) were treated with the lyophilized morpholino at a final concentration of 100 nM. After electroporation, the cells were grown for various lengths of time, ranging from 12 to 48 h, and analyzed for GlPLK inhibition by western blotting using anti-HA and anti-GlPLK antibodies. The cells at 18 h post-transfection were analyzed for their nuclear phenotypes, including the number and position of nuclei and condensation and flagella length, as described above. In addition, cells transfected with control or anti-glplk morpholino were harvested at 6 or 18 h, and then evaluated with respect to their DNA content by flow cytometry followed by analysis using FlowJo software (FlowJo Llc). Transfection was performed at least five times, and the data presented were derived from three independent knockdown experiments.

As for `COc1cc2ncn(-c3cc(OCc4ccccc4C(F)(F)F)c(C(N)=O)s3)c2cc1OC` [GW, GW843682X], the IC50 in assay [1] came out at 7 µM. Further, the “Percentage of cells, 1N” value was found to be 0.4±0.1% in assay [2] (3 h); 0.3±0.2% in assay [2] (6 h); 1.2±0.1% in assay [2] (9 h); 1.2±0.1% in assay [2] (12 h); 1.1±0.2% in assay [2] (15 h); 0.9±0.3% in assay [2] (18 h). Besides, in assay [2] (24 h), the “Percentage of cells, 1N” value stood at 1.2±0.3%. Also, the “Percentage of cells, 2N, abnormal” value was determined as 0.7±0.3% in assay [2] (3 h); 0.8±0.3% in assay [2] (6 h); 1.3±0.3% in assay [2] (9 h); 1.4±0.6% in assay [2] (12 h); 1.6±0.5% in assay [2] (15 h); 0.9±0.4% in assay [2] (18 h). For the same molecule, the “Percentage of cells, 2N, abnormal” value in assay [2] (24 h) was found to be 1.6±0.5%. In addition, the “Percentage of cells, 2N, normal” value turned out to be 97.2±0.8% in assay [2] (3 h); 96.9±0.7% in assay [2] (6 h); 91.7±0.1% in assay [2] (9 h); 91.0±1.4% in assay [2] (12 h); 86.1±1.4% in assay [2] (15 h); 88.5±1.2% in assay [2] (18 h). The “Percentage of cells, 2N, normal” value in assay [2] (24 h) worked out at 85.6±0.5%. Further, the “Percentage of cells, 3N” value in assay [2] (3 h) was 0.2±0.1%; in assay [2] (6 h), 0.3±0.1%; in assay [2] (9 h) it was 1.3±0.4%; in assay [2] (12 h), 1.5±0.4%; in assay [2] (15 h), 1.5±0.3%; in assay [2] (18 h) it was 1.6±0.4%. The “Percentage of cells, 3N” value in assay [2] (24 h) was determined as 2.3±0.2%. The “Percentage of cells, 4N” value in assay [2] (3 h) is reported as 0.7±0.2%; in assay [2] (6 h), 0.8±0.2%; in assay [2] (9 h), 3.3±0.4%; in assay [2] (12 h) it was 3.1±0.9%; in assay [2] (15 h), 6.7±0.5%; in assay [2] (18 h), 5.4±0.8%. In addition, the “Percentage of cells, 4N” value in assay [2] (24 h) is recorded as 6.1±0.5%. Besides, the “Percentage of cells, >4N” value in assay [2] (3 h) worked out at 0.8±0.3%; in assay [2] (6 h) it was 0.9±0.4%; in assay [2] (9 h), 1.7±0.3%; in assay [2] (12 h), 1.9±0.8%; in assay [2] (15 h), 3.1±0.6%; in assay [2] (18 h), 2.7±0.5%. The “Percentage of cells, >4N” value in assay [2] (24 h) was determined as 3.2±0.4%. Further, in assay [2] (5 μM GW, 6 h, compared to DMSO-treated cells), the “Percentage of cells with condensed nuclei” value is “significantly increased”. The “Percentage of cells at G2/M phase” value in assay [3] (5 μM GW, 6 and 12 h, control 72–73%) is on record as 86%. The “Length of cytoplasmic part of posterolateral, anterior and caudal flagella” value in assay [4] is reported as “None of the three flagella showed any significant change”. For the same molecule, the “Length of membrane-bound portion of posterolateral and ventral flagella” value in assay [4] (18 h) was “did not induce a significant increase”. Moreover, in assay [4] (18 h, DMSO 7.2 μm), the “Length of membrane-bound part of caudal flagella” value was 11.1 µm. The “Length of membrane-bound part of anterior flagella” value in assay [4] (18 h, DMSO 9.0 μm) is reported as 11.3 µm.
In the case of `C[C@@]1(CO)[C@H](O)CC[C@@]2(C)[C@H]1CC[C@H]1C[C@@H]3C[C@@]12CC[C@]3(O)CO` [aphidicolin], the “Percentage of G1/S-arrested cells after synchronization” value in assay [3] (sequentially 100 nM nocodazole, then 6 μM aphidicolin 6 h, Giardia carrying pGlPLK.neo) was 86%.
As to `COC(=O)Nc1nc2ccc(C(=O)c3cccs3)cc2[nH]1` [nocodazole], the “Percentage of G2/M-phase cells after synchronization” value in assay [3] (100 nM nocodazole, Giardia carrying pGlPLK.neo, 0.01% DMSO control 78%) came out at 91%.
